The text below walks through data of article PMC6054150, “Cytokinin perception in potato: new features of canonical players” (Journal of Experimental Botany, 2018).

Values joined by “and” are separate entries in the source; they are usually repeats but may differ in a detail not shown here. Equal entries are not always repeated. Where two headings read alike, the source gives them in different places.

One experiment addresses StHK2a (Solanum tuberosum, UniProt A0A2P1D005). Put plainly: Plant membrane (tobacco microsome) hormone binding assay with [3H]trans-zeatin, StHK2a. An excerpt: (§1) The transient transformation of tobacco (Nicotiana benthamiana Domin) leaves was accomplished according to [Sparkes et al. (2006)]. Eight-week-old tobacco plants were infiltrated with a mixture of Agrobacterium tumefaciens carrying CK receptor genes fused to green fluorescent protein (GFP) and the A. tumefaciens helper strain p19 ([Voinnet et al., 2003]), and the expression of receptor genes was checked after 5–6 d with a fluorescence microscope, Axio Imager Z2 (Carl Zeiss Microscopy GmbH), before leaves were processed further for microsome isolation.
(§2) All manipulations were done at 4 °C. Tobacco leaves 6 d after infiltration were homogenized in buffer (3 ml per 1 g of fresh weight) containing 100 mM Tris–HCl (pH 8.0), 2 mM Na2-EDTA, 50 mM KCl, 1 mM DTT, and 1 mM phenylmethylsulfonyl fluoride. The homogenate was filtered through Miracloth (Calbiochem, San Diego, CA, USA), and the filtrate was centrifuged for 5 min at 5000 g. Then supernatant was centrifuged for 40 min at 15000 g. The microsome pellet was resuspended in 50 mM KCl–10% glycerol and the microsome suspension was stored at −70 °C.
(§3) Ligand binding studies were performed in PBS as described previously ([Romanov et al., 2005]; [Lomin et al., 2015]). Studies of pH influence on hormone binding were performed in 50 mM MES–KOH (pH 5–7) or Tris–HCl (pH 7–9) buffers with 50 mM KCl. Kd for [^3H]trans-zeatin (tZ) binding to different receptors was determined in saturation assays followed by data analysis in Scatchard plots.
(§4) To analyse ligand-binding properties of the receptors, a recently developed plant membrane assay system ([Lomin et al., 2015]) was used. Predicted potato CK receptor genes were cloned into pB7FWG2 vectors for transient expression in tobacco leaves. […] Instead of full-length receptor, we clond a genomic sequence of the StHK3a sensory module flanked by transmembrane domains. From the transiently transformed tobacco leaves, a microsomal fraction enriched with individual potato receptors was obtained. The binding assays were conducted using this fraction and tritium-labeled CK. In aggregate, we tested four putative receptors belonging to all three clades: StHK2a, StHK3a (sensory module, further designated as StHK3aSM), StHK4a, and StHK4b.
(§5) First, we determined the pH-dependence of hormone binding to these receptors within the pH range of 5–9 (Fig. 5).
(§6) The interaction of a hormone with a receptor is characterized by the equilibrium dissociation constant (Kd) of the ligand–receptor complex. Kd values were determined by the dose-dependent binding of labeled trans-zeatin to StHKs, and the results were processed by the Scatchard method (Supplementary Fig. S7; [Lomin and Romanov, 2008]).
(§7) Different CKs are usually present in the plant: trans- and cis-zeatins (tZ and cZ), isopentenyladenine (iP), and dihydrozeatin (DZ). In addition to natural CKs, there are many synthetic ones. […] We studied the ligand specificity of putative receptors in competitive experiments where binding of labeled CK was carried out in the presence of various concentrations of certain unlabeled ligands. Based on the obtained competition curves (Supplementary Fig. S8), the apparent Kd values were determined for each ligand as described ([Lomin and Romanov, 2008]). We analysed the interaction of StHKs with six CKs, including five natural ones as well as the synthetic urea-type CK thidiazuron (Table 3).

The next experiment has as its target StHK3aSM (Solanum tuberosum, UniProt A0A2U9K793). Put plainly: Plant membrane (tobacco microsome) hormone binding assay with [3H]trans-zeatin, StHK3a sensory module.
Description: as §1, §2, §3, §4, §5, §6, §7

Another experiment addresses StHK4a (Solanum tuberosum, UniProt A0A2U9K790). As to the kind of experiment: Plant membrane (tobacco microsome) hormone binding assay with [3H]trans-zeatin, StHK4a.
Description: as §1, §2, §3, §4, §5, §6, §7

Another experiment concerns the target StHK4b (Solanum tuberosum, UniProt A0A2U9K786). Put plainly: Plant membrane (tobacco microsome) hormone binding assay with [3H]trans-zeatin, StHK4b.
Description: as §1, §2, §3, §4, §5, §6, §7

The subject of another experiment is StHK4 expression. As to the kind of experiment: qRT-PCR of CK receptor gene expression after BA treatment of potato plants. The format is in vivo, Solanum tuberosum. To be noted: leaves; 1.5% sucrose; 1 μM BA, 1 h; on average. As to the method:
(§8) Potato cv. Désirée plants were cultivated under standard in vitro conditions at a long (16 h) day for 5–6 weeks on liquid MS medium containing 1.5% or 5% sucrose. For hormone treatment, the medium was replaced with the same one supplemented with N^6-benzyladenine (BA, 1 μM). Tubes were inverted several times to assure uniform plant wetting and then incubated for 1 h under standard conditions. Finally, plant organs (leaves, stems, roots, tubers) were isolated and immediately frozen in liquid nitrogen. Control plants were treated in the same way but without hormone. Total RNA was isolated by the Trizol method ([Brenner et al., 2005]), and served as the template for cDNA synthesis by reverse transcription (Invitrogen). All RNA samples were treated with RNase-free DNase I. The resulting cDNA was checked for genomic DNA contamination by PCR with primers differentiating cDNA and genomic DNA. The band derived from genomic DNA was absent in the separating gel. Expression of genes encoding predicted proteins of the CK signaling system was determined by qRT-PCR. Potato housekeeping genes StEF1α (elongation factor 1-α, AB061263) and StCYC (cyclophilin, AF126551) were used as reference genes ([Nicot et al., 2005]). […]
At 1.5% sucrose, the up-regulation (on average, 2.5-fold) of StHK4 expression was regularly recorded, but only in leaves (Fig. 8). […]
Background: Quantitative PCR measures a nucleic acid by following its amplification.

In the next experiment the test system is StRR-A genes. As to the kind of experiment: qRT-PCR of type A response regulator gene expression after BA treatment of potato plants. The format is in vivo, Solanum tuberosum. The note with it: 1 μM BA, 1 h; 1.5% sucrose. How it is done:
as §8
To validate the results of CK treatment experiments, the effect of CK administration on the transcript level of the genes of type A response regulator (RR-A) genes was analysed. […]

The target in experiment [1] is StHKs (StHK2a, StHK3aSM, StHK4a, StHK4b). As to the kind of experiment: Competitive binding, summary over the analysed StHKs. The arrangement: species or system Solanum tuberosum. To be noted: span over StHK2a, read-out: apparent Kd, all analysed StHKs. How it is done:
as §3
To analyse ligand-binding properties of the receptors, a recently developed plant membrane assay system ([Lomin et al., 2015]) was used. Predicted potato CK receptor genes were cloned into pB7FWG2 vectors for transient expression in tobacco leaves. […] Instead of full-length receptor, we clond a genomic sequence of the StHK3a sensory module flanked by transmembrane domains. From the transiently transformed tobacco leaves, a microsomal fraction enriched with individual potato receptors was obtained. The binding assays were conducted using this fraction and tritium-labeled CK. […]
Different CKs are usually present in the plant: trans- and cis-zeatins (tZ and cZ), isopentenyladenine (iP), and dihydrozeatin (DZ). […] Based on the obtained competition curves (Supplementary Fig. S8), the apparent Kd values were determined for each ligand as described ([Lomin and Romanov, 2008]). We analysed the interaction of StHKs with six CKs, including five natural ones as well as the synthetic urea-type CK thidiazuron (Table 3).

Where [2] appears, read: competition with labeled trans-zeatin (tZ value from saturation/Scatchard); mean ± SE; read-out: Apparent Kd StHK2a.
[3] abbreviates: sensory module, competition with labeled trans-zeatin (tZ value from saturation/Scatchard), mean ± SE, read-out: Apparent Kd StHK3a SM.
Setting [4] is: competition with labeled trans-zeatin (tZ value from saturation/Scatchard), mean ± SE, read-out: Apparent Kd StHK4a.
Where [5] appears, read: competition with labeled trans-zeatin (tZ value from saturation/Scatchard), mean ± SE, read-out: Apparent Kd StHK4b.

Sequence of StHK2a (A0A2P1D005 entry or part of it): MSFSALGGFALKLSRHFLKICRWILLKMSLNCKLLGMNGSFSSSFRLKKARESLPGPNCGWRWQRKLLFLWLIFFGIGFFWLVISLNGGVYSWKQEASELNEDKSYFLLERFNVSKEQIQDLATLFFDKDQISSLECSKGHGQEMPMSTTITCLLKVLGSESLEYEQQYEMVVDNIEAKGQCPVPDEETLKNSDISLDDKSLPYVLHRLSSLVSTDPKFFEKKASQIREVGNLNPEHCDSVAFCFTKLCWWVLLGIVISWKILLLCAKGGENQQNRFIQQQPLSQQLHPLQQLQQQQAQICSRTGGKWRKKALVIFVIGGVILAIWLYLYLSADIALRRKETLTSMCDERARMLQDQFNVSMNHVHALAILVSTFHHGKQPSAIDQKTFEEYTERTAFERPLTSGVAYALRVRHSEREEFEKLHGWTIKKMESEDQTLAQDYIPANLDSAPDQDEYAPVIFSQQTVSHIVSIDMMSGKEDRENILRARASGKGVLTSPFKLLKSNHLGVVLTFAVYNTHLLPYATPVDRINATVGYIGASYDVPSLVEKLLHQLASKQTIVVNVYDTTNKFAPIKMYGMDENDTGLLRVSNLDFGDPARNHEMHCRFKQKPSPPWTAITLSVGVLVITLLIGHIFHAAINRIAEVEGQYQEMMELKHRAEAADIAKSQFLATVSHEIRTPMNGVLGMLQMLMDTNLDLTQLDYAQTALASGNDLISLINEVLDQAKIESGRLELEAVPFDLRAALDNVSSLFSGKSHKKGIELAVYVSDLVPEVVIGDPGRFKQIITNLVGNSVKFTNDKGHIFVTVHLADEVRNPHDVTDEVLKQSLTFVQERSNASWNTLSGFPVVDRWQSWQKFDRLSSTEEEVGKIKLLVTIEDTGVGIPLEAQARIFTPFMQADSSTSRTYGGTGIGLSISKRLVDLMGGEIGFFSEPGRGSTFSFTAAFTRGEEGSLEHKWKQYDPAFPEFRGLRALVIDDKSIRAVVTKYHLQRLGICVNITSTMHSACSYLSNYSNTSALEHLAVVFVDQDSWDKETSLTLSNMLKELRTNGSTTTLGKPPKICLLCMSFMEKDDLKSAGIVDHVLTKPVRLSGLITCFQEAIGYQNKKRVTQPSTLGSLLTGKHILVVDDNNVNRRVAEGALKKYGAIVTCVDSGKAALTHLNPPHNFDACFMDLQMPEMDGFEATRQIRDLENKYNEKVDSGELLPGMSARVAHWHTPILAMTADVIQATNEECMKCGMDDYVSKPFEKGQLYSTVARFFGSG
Sequence of StHK4a (A0A2U9K790 entry or part of it): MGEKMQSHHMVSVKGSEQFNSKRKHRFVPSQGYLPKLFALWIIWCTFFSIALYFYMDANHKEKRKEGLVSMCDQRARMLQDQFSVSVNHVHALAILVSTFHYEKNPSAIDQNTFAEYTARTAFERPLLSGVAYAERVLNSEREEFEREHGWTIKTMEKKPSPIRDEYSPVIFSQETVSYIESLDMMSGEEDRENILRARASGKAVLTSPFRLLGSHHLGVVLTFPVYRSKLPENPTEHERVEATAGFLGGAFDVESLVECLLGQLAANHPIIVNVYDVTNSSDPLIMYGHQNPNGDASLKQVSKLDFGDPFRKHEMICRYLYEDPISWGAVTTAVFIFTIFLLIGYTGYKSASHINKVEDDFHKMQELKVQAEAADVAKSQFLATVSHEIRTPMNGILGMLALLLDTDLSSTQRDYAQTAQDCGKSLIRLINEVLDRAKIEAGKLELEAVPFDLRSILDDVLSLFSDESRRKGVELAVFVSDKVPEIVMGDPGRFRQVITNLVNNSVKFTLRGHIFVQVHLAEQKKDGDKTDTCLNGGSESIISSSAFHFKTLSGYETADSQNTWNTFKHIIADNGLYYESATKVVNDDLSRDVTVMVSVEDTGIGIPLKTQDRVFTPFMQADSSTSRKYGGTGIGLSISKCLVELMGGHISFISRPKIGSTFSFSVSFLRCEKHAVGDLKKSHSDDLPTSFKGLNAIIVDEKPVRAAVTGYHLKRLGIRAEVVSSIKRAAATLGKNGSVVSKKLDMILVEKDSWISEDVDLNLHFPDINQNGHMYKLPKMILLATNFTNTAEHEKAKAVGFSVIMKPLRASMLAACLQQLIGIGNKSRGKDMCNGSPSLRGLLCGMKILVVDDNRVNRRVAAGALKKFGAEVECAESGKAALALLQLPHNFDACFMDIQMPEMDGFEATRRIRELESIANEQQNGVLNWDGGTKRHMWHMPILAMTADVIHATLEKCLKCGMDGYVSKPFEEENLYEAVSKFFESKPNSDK
Sequence of StHK4b (A0A2U9K786 entry or part of it): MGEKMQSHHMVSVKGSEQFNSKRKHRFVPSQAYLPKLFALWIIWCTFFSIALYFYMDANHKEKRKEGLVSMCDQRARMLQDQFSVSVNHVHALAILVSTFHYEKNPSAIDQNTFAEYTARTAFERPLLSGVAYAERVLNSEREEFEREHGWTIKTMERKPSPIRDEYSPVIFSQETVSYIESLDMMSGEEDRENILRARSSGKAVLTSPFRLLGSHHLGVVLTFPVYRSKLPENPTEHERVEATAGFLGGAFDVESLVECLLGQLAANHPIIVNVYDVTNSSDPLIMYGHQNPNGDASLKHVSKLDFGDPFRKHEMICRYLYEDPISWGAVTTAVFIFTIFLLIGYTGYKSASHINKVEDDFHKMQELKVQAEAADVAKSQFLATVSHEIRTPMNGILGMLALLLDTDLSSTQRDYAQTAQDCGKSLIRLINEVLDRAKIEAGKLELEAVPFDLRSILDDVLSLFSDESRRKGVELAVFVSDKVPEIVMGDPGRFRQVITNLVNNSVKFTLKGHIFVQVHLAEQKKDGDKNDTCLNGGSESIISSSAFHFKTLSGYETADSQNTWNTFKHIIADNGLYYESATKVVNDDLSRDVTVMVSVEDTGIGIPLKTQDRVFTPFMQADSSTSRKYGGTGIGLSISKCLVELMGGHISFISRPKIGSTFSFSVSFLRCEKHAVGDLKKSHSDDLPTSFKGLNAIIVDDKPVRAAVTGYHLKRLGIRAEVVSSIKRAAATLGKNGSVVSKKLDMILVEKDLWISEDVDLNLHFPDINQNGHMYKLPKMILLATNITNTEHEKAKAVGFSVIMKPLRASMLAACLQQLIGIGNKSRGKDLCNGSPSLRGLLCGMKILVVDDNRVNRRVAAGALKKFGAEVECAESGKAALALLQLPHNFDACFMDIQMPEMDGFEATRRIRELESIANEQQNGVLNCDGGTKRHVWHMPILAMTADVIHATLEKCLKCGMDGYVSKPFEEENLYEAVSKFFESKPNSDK
Sequence of StHK3aSM (A0A2U9K793 entry or part of it): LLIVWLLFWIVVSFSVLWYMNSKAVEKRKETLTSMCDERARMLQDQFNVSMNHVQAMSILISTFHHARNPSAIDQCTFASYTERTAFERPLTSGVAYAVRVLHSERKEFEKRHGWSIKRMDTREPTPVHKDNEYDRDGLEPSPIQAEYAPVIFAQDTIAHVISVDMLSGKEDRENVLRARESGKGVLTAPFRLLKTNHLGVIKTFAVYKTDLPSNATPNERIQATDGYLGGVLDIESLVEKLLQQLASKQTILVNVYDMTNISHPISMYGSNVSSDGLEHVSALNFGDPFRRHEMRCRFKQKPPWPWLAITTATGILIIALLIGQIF

In the case of `CC(CO)CCNc1ncnc2nc[nH]c12` (stereo not drawn) [Dihydrozeatin], the Kd was 169 ± 18 nM at StHK2a (setting [2]); ~21 nM and 21 nM at StHK3aSM (setting [3]); 178 ± 37 nM at StHK4a (setting [4]); 227 ± 33 nM on StHK4b (setting [5]).
As to `c1ccc(CNc2ncnc3nc[nH]c23)cc1` [N ^6-Benzyladenine], the Kd was found to be 45 ± 3.5 nM on StHK2a (read-out: Apparent Kd StHK2a; competition with labeled trans-zeatin (tZ value from saturation/Scatchard); mean ± SE); 49 ± 7 nM on StHK3aSM (Apparent Kd StHK3a SM, sensory module, competition with labeled trans-zeatin (tZ value from saturation/Scatchard), mean ± SE); 55 ± 7 nM at StHK4a; 63 ± 12 nM at StHK4b. Moreover, in the experiment on StHK4 expression, the “up-regulation of StHK4 expression (BA/control)” value worked out at 2.5 fold. Further, the “expression of StRR-A genes” value in the experiment with StRR-A genes was “rapid and reliable increase”.
Take `CC(C)=CCNc1ncnc2nc[nH]c12` [N ^6-Isopentenyladenine]: the Kd at StHK2a (setting [2]) amounted to 2.4 ± 0.2 nM; at StHK3aSM (setting [3]) it was 5.2 ± 0.8 nM; on StHK4a (setting [4]), 2.1 ± 0.2 nM; at StHK4b (setting [5]), 2.5 ± 0.3 nM.
The matching figures for `O=C(Nc1ccccc1)Nc1cnns1` [Thidiazuron]: 1.4 ± 0.04 nM, 2.3 ± 0.5 nM, 12.6 ± 1.9 nM and 17.2 ± 2.5 nM.
Consider `C/C(=C/CNc1ncnc2nc[nH]c12)CO` [cis-Zeatin], for which the Kd on StHK2a (read-out: Apparent Kd StHK2a) was 102 ± 7 nM; on StHK3aSM (read-out: Apparent Kd StHK3a SM), 110 ± 39 nM; on StHK4a (read-out: Apparent Kd StHK4a), 106 ± 22 nM; at StHK4b (read-out: Apparent Kd StHK4b), 129 ± 19 nM; in experiment [1] it was above 100 nM.
On to `C/C(=C\CNc1ncnc2[nH]cnc12)CO` [trans-Zeatin], for which, on StHK2a, the “pH of maximal trans-zeatin binding, StHK2a” value came to 7.5. The “reduction of binding at pH 5 (factor), StHK2a” value on StHK2a is 2. The Kd at StHK2a (setting [2]) stood at 2.6 ± 0.3 nM; at StHK3aSM (setting [3]), 4.7 ± 0.6 nM; at StHK4a (setting [4]), 2.5 ± 0.7 nM; at StHK4b (setting [5]), 3 ± 0.3 nM. On StHK3aSM, the “pH of maximal trans-zeatin binding, StHK3aSM” value stood at 7. On StHK3aSM, the “reduction of binding at pH 5 (factor), StHK3aSM” value is 5. Also, the “decrease of ligand binding at pH 5, StHK4a” value at StHK4a (pH 5) is “about 3 fold”. Moreover, the “decrease of ligand binding at pH 5, StHK4b” value at StHK4b (pH 5) is “about 3 fold”.
